Test results taken from ChEMBL document CHEMBL5370695, “Novel Adenosine Receptor Antagonists for Treating Cancer and Immune-Related Disorders” (ACS Med Chem Lett, 2023).

Experiments:
Adenosine receptor A2a = Adenosine receptor A2a (Homo sapiens, UniProt P29274); test: Displacement of [3H]-SCH58261 from recombinant human adenosine A2A receptor expressed in HEK293 cell membrane incubated for 15 to 30 mins by Topcount scintillation counter assay; assay type: cell membranes
Adenosine receptor A2b = target: T1, Adenosine receptor A2b (Homo sapiens, UniProt P29275); test: Binding affinity to recombinant human adenosine A2B receptor expressed in HEK293 cell membrane incubated for 15 to 30 mins by Topcount scintillation counter assay; assay type: cell membranes
T1 sequence (P29275 whole entry): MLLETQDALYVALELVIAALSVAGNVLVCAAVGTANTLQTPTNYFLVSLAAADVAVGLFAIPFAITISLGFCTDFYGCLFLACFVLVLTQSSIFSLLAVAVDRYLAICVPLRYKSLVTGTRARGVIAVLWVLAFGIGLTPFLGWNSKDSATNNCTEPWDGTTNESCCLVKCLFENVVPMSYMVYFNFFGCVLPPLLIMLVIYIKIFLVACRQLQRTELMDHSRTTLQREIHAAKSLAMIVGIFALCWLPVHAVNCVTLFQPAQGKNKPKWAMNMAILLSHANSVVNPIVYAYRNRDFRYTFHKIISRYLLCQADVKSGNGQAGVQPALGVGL

Sequence of Adenosine receptor A2a (P29274 whole entry): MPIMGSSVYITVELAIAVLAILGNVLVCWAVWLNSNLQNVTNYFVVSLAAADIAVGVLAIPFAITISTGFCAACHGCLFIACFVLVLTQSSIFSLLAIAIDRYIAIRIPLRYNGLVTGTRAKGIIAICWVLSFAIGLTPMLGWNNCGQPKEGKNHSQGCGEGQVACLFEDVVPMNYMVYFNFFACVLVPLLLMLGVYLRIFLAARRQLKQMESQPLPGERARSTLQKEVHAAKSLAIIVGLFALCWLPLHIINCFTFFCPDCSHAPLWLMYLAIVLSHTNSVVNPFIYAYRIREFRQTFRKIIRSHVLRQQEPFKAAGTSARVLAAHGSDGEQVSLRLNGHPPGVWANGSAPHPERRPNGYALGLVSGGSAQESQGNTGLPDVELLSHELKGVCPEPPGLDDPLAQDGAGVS

IC50 (Adenosine receptor A2a) [nM] | IC50 (Adenosine receptor A2b) [nM] | Structure (SMILES)
0.8 | 2.7 | COc1cccc2c1nc(N)n1nc([C@H]3C[C@H](c4ncc(C(C)(C)N)cc4Cl)C3)nc21
– | 1.6 | COc1cccc2c1nc(N)n1nc([C@H]3C[C@H](c4ncc(C(C)(C)N)cc4C)C3)nc21
1.1 | 3.1 | COc1cccc2c1nc(N)n1nc(C3CC3c3ccc4c(c3)CCNC4)nc21 (stereo unspecified)
– | 3.3 | COc1cccc2c1nc(N)n1nc([C@H]3C[C@H](c4ccc(C(C)(C)O)cn4)C3)nc21
